Experimental data reported in patent US20040266862A1, “Method of improving animal tissue quality by supplementing the animal diet with mixed tocotrienols” (priority 2003, published 2004).
Marks after values point to notes of the source that are not given here.

Tests used:
Format in all cases: in vivo
swine [1] = experiment: 2002 swine feed test: fat and TBARS content of raw ground pork
Source text: Applicants conducted a second swine feeding trial to further determine the effects on meat quality of supplementation of a swine diet with alpha-tocopherol (AT), gamma-tocopherol (GT) or mixed tocotrienols (MT). Seventy-two barrows (˜75 lbs.) were transported to the Pioneer Livestock Nutrition Center (PLNC) and randomly placed into individual pens with water and feed provided ad libitum. The pigs received a common diet for seven days. On the eighth day the pigs were weighed individually and a uniform group of sixty pigs with an average body weight of about 75 pounds was selected. The pigs were randomly assigned one of five dietary treatments with 12 pigs per treatment. The feeding trial was initiated on Mar. 12, 2002 and ended on Jun. 19, 2002. The pigs were fed a corn-soybean meal diet formulated to provide adequate levels of all nutrients. In addition, one of five dietary treatments was assigned to each group: control, 300 ppm AT, 450 ppm GT, 150 ppm MT, and 300 ppm MT. To each diet a corn oil premix and a ground corn premix were added with the corn oil premix as a carrier for the supplemental tocopherols and the ground corn premix as the carrier for the MT. The MT supplement was obtained commercially from Fuji Chemical Industries (U.S.A.) Inc. of Robbinsville, N.J., and contained 7.5% alpha-, 12.3% gamma- and 3.0% delta-tocotrienol, as well as 7.2% alpha-tocopherol. Trimmed bellies were collected to measure the effects of dietary treatments on ground pork oxidation rate. The bellies were ground through a meat grinder and mixed. Four one-pound samples of each ground belly were placed on a retail meat tray and covered with oxygen permeable film. On each of days 1, 7, 10 and 16 post-grinding, one of the trays was opened and a sample submitted for TBARS (thiobarbituric acid reactive substances) determination, a measure of the extent of oxidation.

chickens [2] = experiment: 2002 poultry feed test: TBARS content of raw ground chicken thighs; conditions: 300 ppm in diet
Source text: (§1) Applicants also assessed the effects of antioxidant supplementation on meat quality in an experiment in which meat from chickens fed one of four dietary treatments was compared. On Jul. 25, 2002, day-old chicks were obtained from a commercial company. The birds were housed in a brooder until Aug. 11, 2002. On Aug. 11, forty-eight birds were randomly allocated to one of four pens (twelve birds per pen). Birds in each pen were offered ad libitum access to one of four treatment diets: control, 300 ppm AT, 300 ppm GT or 150 ppm MT. The MT premix contained a commercially available MT supplement (7.5% alpha-, 12.3% gamma- and 3.0% delta-tocotrienol and 7.2% alpha-tocopherol) mixed with ground corn as the carrier. The total MT premix (ground corn plus MT supplement) represented 2.5% w/w of the finished MT supplemented feed.
(§2) On Sep. 13, 2002 (seven weeks of age) the birds were harvested, identified and frozen at −20C. The birds were stored frozen at −20C for 136-159 days post slaughter. On days 136, 156, 157, 158 and 159 (where available) two birds per dietary treatment were thawed in cold water. Meat was removed from the breasts (pectoralis major muscles) and thighs. Breast meat from each chicken was ground through a 3 mm disc in a Krups Butcher Shop 150W Professional Power Meat Grinder. Thigh meat from two chickens was combined (for days 156, 157, 158 and 159; day 136 thigh meat was kept separate for each bird) and ground in a similar manner. Patties were made (10 g for breast; 60 g for thighs) using a 100×15 mm Petri dish as a mold.
(§3) Patties were quartered and each quarter was stored at 2.2C for a designated period of time. One quarter was used per sampling period. Sampling periods for the raw ground meat were day 0, day 3, day 7 and day 10. Thiobarbituric acid reacting substances (TBARS) analyses was performed on the raw ground chicken breasts and thighs according to the procedure of Ahn, D. U., D. G. Olson, C. Jo, X. Chen, C. Wu, and J. I. Lee, “Effect of Muscle Type, Packaging, and Irradiation on Lipid Oxidation, Volatile Production and Color in Raw Pork Patties”, Meat Sci. 49:27-39 (1998).

swine [3] = experiment: 2002 swine feed test: sensory characteristics of cooked pork loin chops
Source text: Applicants conducted a second swine feeding trial to further determine the effects on meat quality of supplementation of a swine diet with alpha-tocopherol (AT), gamma-tocopherol (GT) or mixed tocotrienols (MT). Seventy-two barrows (˜75 lbs.) were transported to the Pioneer Livestock Nutrition Center (PLNC) and randomly placed into individual pens with water and feed provided ad libitum. The pigs received a common diet for seven days. On the eighth day the pigs were weighed individually and a uniform group of sixty pigs with an average body weight of about 75 pounds was selected. The pigs were randomly assigned one of five dietary treatments with 12 pigs per treatment. The feeding trial was initiated on Mar. 12, 2002 and ended on Jun. 19, 2002. The pigs were fed a corn-soybean meal diet formulated to provide adequate levels of all nutrients. In addition, one of five dietary treatments was assigned to each group: control, 300 ppm AT, 450 ppm GT, 150 ppm MT, and 300 ppm MT. To each diet a corn oil premix and a ground corn premix were added with the corn oil premix as a carrier for the supplemental tocopherols and the ground corn premix as the carrier for the MT. The MT supplement was obtained commercially from Fuji Chemical Industries (U.S.A.) Inc. of Robbinsville, N.J., and contained 7.5% alpha-, 12.3% gamma- and 3.0% delta-tocotrienol, as well as 7.2% alpha-tocopherol. A one-inch thick chop was collected from the 10th rib region of each pig carcass to evaluate the effects of dietary treatment on cooked product characteristics. Sensory evaluation was conducted using a trained sensory panel. Each panelist evaluated a ½ inch cube removed from the center of a cooked pork chop immediately after reaching 71 degrees C. Samples were evaluated for degree of juiciness, tenderness, chewiness, pork flavor and off-flavor intensity.

swine [4] = experiment: 2002 swine feed test: 24 hour raw pork loin quality
chickens [5] = experiment: 2002 poultry feed test: TBARS content of raw ground chicken breasts; conditions: 300 ppm in diet
Source text: as §1, §2, §3

chickens [6] = experiment: 2002 poultry feed test: TBARS content of cooked ground chicken breasts; conditions: 300 ppm in diet
Source text: as §1, §2
Raw ground chicken breast and thigh patties were cooked in a pre-warmed George Foreman grill for five minutes per breast patty and four minutes per thigh patty. Cooked patties were allowed to cool under refrigeration and then quartered (day 136) or halved (days 156, 157, 158 and 159). Each quarter or half was stored at 2.2C in zip lock baggies for a designated period of time. One quarter was used per sampling period. Sampling periods were 0 hours, 4 hours, 26 hours and 48 hours. Thiobarbituric acid reacting substances (TBARS) analyses was performed according to Ahn et al., and the results are shown in the following two tables.

[7] = scale of 1 to 10, 450 ppm in diet
[8] = scale of 1 to 10, 300 ppm in diet

How did the TBARS content (swine [1]; Day 1 post-grinding, 450 ppm in diet) turn out when `Cc1c(O)cc2c(c1C)O[C@](C)(CCC[C@H](C)CCC[C@H](C)CCCC(C)C)CC2` [GT, gamma-tocopherol] was run?
The TBARS content was 0.19 mg Malonaldehyde/kg sample.

What about the TBARS content (swine [1]; Day 7 post-grinding, 450 ppm in diet) of the same compound?
The TBARS content was 0.17 mg Malonaldehyde/kg sample.

What about the TBARS content (swine [1]; Day 10 post-grinding, 450 ppm in diet) of the same compound?
The TBARS content was 0.32 mg Malonaldehyde/kg sample.

And the TBARS content (swine [1]; Day 16 post-grinding, 450 ppm in diet)?
Its TBARS content is 1.01^b mg Malonaldehyde/kg sample.

And the TBARS content (chickens [2]; Day 0 at 2.2C)?
The TBARS content was 0.2493 mg Malonaldehyde/kg sample.

And the TBARS content (chickens [2]; Day 3 at 2.2C)?
The TBARS content was 0.2010 mg Malonaldehyde/kg sample.

What about the TBARS content (chickens [2]; Day 7 at 2.2C) of the same compound?
Its TBARS content is 0.1626 mg Malonaldehyde/kg sample.

What about the TBARS content (chickens [2]; Day 10 at 2.2C) of the same compound?
Its TBARS content is 0.3557 mg Malonaldehyde/kg sample.

And the Chewiness (swine [3]; [7])?
The Chewiness was 2.5.

What about the Juiciness (swine [3]; [7]) of the same compound?
The Juiciness was 5.4.

What about the Off-flavor (swine [3]; [7]) of the same compound?
The Off-flavor was 3.9.

What about the “Pork Flavor” value (swine [3]; [7]) of the same compound?
Its value is 1.8.

And the Tenderness (swine [3]; [7])?
The Tenderness was 7.3.

And the “PH, hour 22” value (swine [4]; 450 ppm in diet)?
The value was 5.76.

What about the TBARS content (chickens [5]; Day 0 at 2.2C) of the same compound?
Its TBARS content is 0.3022 mg Malonaldehyde/kg sample.

And the TBARS content (chickens [5]; Day 3 at 2.2C)?
The TBARS content was 0.1926 mg Malonaldehyde/kg sample.

And the TBARS content (chickens [5]; Day 7 at 2.2C)?
The TBARS content was 0.0860 mg Malonaldehyde/kg sample.

What about the TBARS content (chickens [5]; Day 10 at 2.2C) of the same compound?
The TBARS content was 0.1428^b mg Malonaldehyde/kg sample.

What about the TBARS content (chickens [6]; 0 hours at 2.2C) of the same compound?
Its TBARS content is 0.3809 mg Malonaldehyde/kg sample.

And the TBARS content (chickens [6]; 4 hours at 2.2C)?
Its TBARS content is 0.3443^b mg Malonaldehyde/kg sample.

What about the TBARS content (chickens [6]; 26 hours at 2.2C) of the same compound?
The TBARS content was 0.4559^b mg Malonaldehyde/kg sample.

What about the TBARS content (chickens [6]; 48 hours at 2.2C) of the same compound?
Its TBARS content is 0.6120^b mg Malonaldehyde/kg sample.

Which results are given for `Cc1c(C)c2c(c(C)c1O)CC[C@@](C)(CCC[C@H](C)CCC[C@H](C)CCCC(C)C)O2` [AT, alpha-tocopherol]?
TBARS content (swine [1]; Day 1 post-grinding, 300 ppm in diet): 0.13 mg Malonaldehyde/kg sample; TBARS content (swine [1]; Day 7 post-grinding, 300 ppm in diet): 0.18 mg Malonaldehyde/kg sample; TBARS content (swine [1]; Day 10 post-grinding, 300 ppm in diet): 0.34 mg Malonaldehyde/kg sample; TBARS content (swine [1]; Day 16 post-grinding, 300 ppm in diet): 1.46^ab mg Malonaldehyde/kg sample; TBARS content (chickens [2]; Day 0 at 2.2C): 0.3438 mg Malonaldehyde/kg sample; TBARS content (chickens [2]; Day 3 at 2.2C): 0.1810 mg Malonaldehyde/kg sample; TBARS content (chickens [2]; Day 7 at 2.2C): 0.2448 mg Malonaldehyde/kg sample; TBARS content (chickens [2]; Day 10 at 2.2C): 0.4482 mg Malonaldehyde/kg sample; Chewiness (swine [3]; [8]): 2.3; Juiciness (swine [3]; [8]): 6.0; Off-flavor (swine [3]; [8]): 4.3; Pork Flavor (swine [3]; [8]): 1.8; Tenderness (swine [3]; [8]): 7.8; PH, hour 22 (swine [4]; 300 ppm in diet): 5.86; TBARS content (chickens [5]; Day 0 at 2.2C): 0.4569 mg Malonaldehyde/kg sample; TBARS content (chickens [5]; Day 3 at 2.2C): 0.1214 mg Malonaldehyde/kg sample; TBARS content (chickens [5]; Day 7 at 2.2C): 0.1243 mg Malonaldehyde/kg sample; TBARS content (chickens [5]; Day 10 at 2.2C): 0.1151^b mg Malonaldehyde/kg sample; TBARS content (chickens [6]; 0 hours at 2.2C): 0.3067 mg Malonaldehyde/kg sample; TBARS content (chickens [6]; 4 hours at 2.2C): 0.4354^b mg Malonaldehyde/kg sample; TBARS content (chickens [6]; 26 hours at 2.2C): 0.3366^b mg Malonaldehyde/kg sample; TBARS content (chickens [6]; 48 hours at 2.2C): 0.4433^b mg Malonaldehyde/kg sample
